Patent publication US20200392116A1, “SUBSTITUTED HETEROCYCLES AS c-MYC TARGETING AGENTS” (NORTHWESTERN UNIVERSITY, priority 2019, published 2020)

Test: Potency code of Table 2 (assay not stated)

Compound	Potency code
CCc1[nH]nc(-c2ccc(OCc3ccc(Cl)cc3)cc2O)c1-c1ccccc1 [NUCC-0198301]	+ (>40 +)
CCc1nn(C)c(-c2ccc(OCc3ccc(Cl)cc3)cc2O)c1-c1ccccc1 [NUCC-0198302]	+ (>40 +)
CCc1c(-c2ccccc2)c(-c2ccc(OCc3ccc(Cl)cc3)cc2O)nn1C [NUCC-0198303]	+ (>40 +)
COc1ccc(-c2c[nH]nc2-c2ccc(OCc3ccc(Cl)cc3)cc2O)cc1 [NUCC-0198304]	+ (>40 +)
COc1ccc(-c2cn(C)nc2-c2ccc(OCc3ccc(Cl)cc3)cc2O)cc1 [NUCC-0198305]	+ (>40 +)
COc1ccc(-c2c(C)nn(C)c2-c2ccc(OCc3ccc(Cl)cc3)cc2O)cc1 [NUCC-0198306]	+ (>40 +)
COc1ccc(-c2c(-c3ccc(OCc4ccc(Cl)cc4)cc3O)nn(C)c2C)cc1 [NUCC-0198307]	+ (>40 +)
COc1cccc(-c2c[nH]nc2-c2ccc(OCc3ccc(Cl)cc3)cc2O)c1 [NUCC-0198308]	+ (>40 +)
COc1cccc(-c2c(C(F)(F)F)nn(C)c2-c2ccc(OCc3ccc(Cl)cc3)cc2O)c1 [NUCC-0198310]	+ (>40 +)
COc1cccc(-c2c(-c3ccc(OCc4ccc(Cl)cc4)cc3O)nn(C)c2C(F)(F)F)c1 [NUCC-0198311]	+ (>40 +)
COc1cccc(-c2c(-c3ccc(OCc4ccc(Cl)cc4)cc3O)n[nH]c2C)c1 [NUCC-0198312]	+ (>40 +)
COc1cccc(-c2c(C)nn(C)c2-c2ccc(OCc3ccc(Cl)cc3)cc2O)c1 [NUCC-0198313]	+ (>40 +)
COc1cccc(-c2c(-c3ccc(OCc4ccc(Cl)cc4)cc3O)nn(C)c2C)c1 [NUCC-0198314]	+ (>40 +)
CCc1[nH]nc(-c2ccc(OCc3ccc(Cl)cc3)cc2O)c1-c1cccc(OC)c1 [NUCC-0198315]	+ (>40 +)
CCc1nn(C)c(-c2ccc(OCc3ccc(Cl)cc3)cc2O)c1-c1cccc(OC)c1 [NUCC-0198316]	+ (>40 +)
CCc1c(-c2cccc(OC)c2)c(-c2ccc(OCc3ccc(Cl)cc3)cc2O)nn1C [NUCC-0198317]	+ (>40 +)
Oc1cc(OCc2ccc(Cl)cc2)ccc1-c1n[nH]cc1-c1cc(C(F)(F)F)cc(C(F)(F)F)c1 [NUCC-0198318]	++ (30-40 ++)
Cn1cc(-c2cc(C(F)(F)F)cc(C(F)(F)F)c2)c(-c2ccc(OCc3ccc(Cl)cc3)cc2O)n1 [NUCC-0198319]	+ (>40 +)
Oc1cc(OCc2ccc(Cl)cc2)ccc1-c1n[nH]cc1-c1cccnc1 [NUCC-0198320]	+ (>40 +)
Cn1cc(-c2cccnc2)c(-c2ccc(OCc3ccc(Cl)cc3)cc2O)n1 [NUCC-0198321]	+ (>40 +)
Oc1cc(OCc2ccc(Cl)cc2)ccc1-c1n[nH]cc1-c1ccoc1 [NUCC-0198322]	++ (30-40 ++)
Cn1ncc(-c2ccoc2)c1-c1ccc(OCc2ccc(Cl)cc2)cc1O [NUCC-0198323]	+ (>40 +)
Cn1cc(-c2ccoc2)c(-c2ccc(OCc3ccc(Cl)cc3)cc2O)n1 [NUCC-0198324]	+ (>40 +)
Oc1c(-c2cc(C(F)(F)F)[nH]n2)ccc(OCc2ccc(Cl)cc2)c1-c1ccoc1 [NUCC-0198325]	+ (>40 +)
COc1cccc(-c2cn(C)nc2-c2ccc(OCc3ccc(Cl)cc3)cc2O)c1 [NUCC-0198326]	+ (>40 +)

Compound	Potency code
Cc1cc(C)cc(-c2c[nH]nc2-c2ccc(OCc3ccc(Cl)cc3)cc2O)c1 [NUCC-0198352]	+ (>40 +)
Cc1cc(C)cc(-c2cn(C)nc2-c2ccc(OCc3ccc(Cl)cc3)cc2O)c1 [NUCC-0198353]	+ (>40 +)
Cc1cc(C)cc(-c2cnn(C)c2-c2ccc(OCc3ccc(Cl)cc3)cc2O)c1 [NUCC-0198354]	+ (>40 +)
Cc1ccccc1-c1c[nH]nc1-c1ccc(OCc2ccc(Cl)cc2)cc1O [NUCC-0198355]	+ (>40 +)
Cc1ccccc1-c1cn(C)nc1-c1ccc(OCc2ccc(Cl)cc2)cc1O [NUCC-0198356]	+ (>40 +)
COc1ccccc1-c1c[nH]nc1-c1ccc(OCc2ccc(Cl)cc2)cc1O [NUCC-0198357]	+ (>40 +)
COc1ccccc1-c1cn(C)nc1-c1ccc(OCc2ccc(Cl)cc2)cc1O [NUCC-0198358]	+ (>40 +)
Cc1cc(C)c(-c2c[nH]nc2-c2ccc(OCc3ccc(Cl)cc3)cc2O)c(C)c1 [NUCC-0198359]	++ (30-40 ++)
Cc1cc(C)c(-c2cn(C)nc2-c2ccc(OCc3ccc(Cl)cc3)cc2O)c(C)c1 [NUCC-0198360]	+ (>40 +)
Cn1cc(-c2c[nH]nc2-c2ccc(OCc3ccc(Cl)cc3)cc2O)cn1 [NUCC-0198361]	+ (>40 +)
Cn1cc(-c2cn(C)nc2-c2ccc(OCc3ccc(Cl)cc3)cc2O)cn1 [NUCC-0198362]	+ (>40 +)
N#Cc1ccc(-c2c(OCc3ccc(Cl)cc3)ccc(-c3cc(C(F)(F)F)[nH]n3)c2O)cc1 [NUCC-0198391]	++++ (<10 ++++)
Cn1nc(C(F)(F)F)cc1-c1ccc(OCc2ccc(Cl)cc2)c(-c2ccc(C#N)cc2)c1O [NUCC-0198392]	+ (>40 +)
Cn1nc(-c2ccc(OCc3ccc(Cl)cc3)c(-c3ccc(C#N)cc3)c2O)cc1C(F)(F)F [NUCC-0198393]	+ (>40 +)
NC(=O)c1ccc(-c2c(OCc3ccc(Cl)cc3)ccc(-c3cc(C(F)(F)F)[nH]n3)c2O)cc1 [NUCC-0198394]	++ (30-40 ++)
CN/N=C(/C)c1ccc(-c2c(OCc3ccc(Cl)cc3)ccc(-c3cc(C(F)(F)F)[nH]n3)c2O)cc1 [NUCC-0198395]	+ (>40 +)
CN/N=C(/C)c1ccc(-c2c(OCc3ccc(Cl)cc3)ccc(-c3cc(C(F)(F)F)nn3C)c2O)cc1 [NUCC-0198396]	+ (>40 +)
CN/N=C(/C)c1ccc(-c2c(OCc3ccc(Cl)cc3)ccc(-c3cc(C(F)(F)F)n(C)n3)c2O)cc1 [NUCC-0198397]	+ (>40 +)
N#Cc1cccc(-c2c(OCc3ccc(Cl)cc3)ccc(-c3cc(C(F)(F)F)[nH]n3)c2O)c1 [NUCC-0198398]	++++ (<10 ++++)
Cn1nc(-c2ccc(OCc3ccc(Cl)cc3)c(-c3cccc(C#N)c3)c2O)cc1C(F)(F)F [NUCC-0198400]	+ (>40 +)
NC(=O)c1cccc(-c2c(OCc3ccc(Cl)cc3)ccc(-c3cc(C(F)(F)F)[nH]n3)c2O)c1 [NUCC-0198401]	+ (>40 +)
Cn1nc(C(F)(F)F)cc1-c1ccc(OCc2ccc(Cl)cc2)c(-c2cccc(C(N)=O)c2)c1O [NUCC-0198402]	+ (>40 +)
CN/N=C(/C)c1cccc(-c2c(OCc3ccc(Cl)cc3)ccc(-c3cc(C(F)(F)F)[nH]n3)c2O)c1 [NUCC-0198403]	+ (>40 +)
CN/N=C(\C)c1cccc(-c2c(OCc3ccc(Cl)cc3)ccc(-c3cc(C(F)(F)F)nn3C)c2O)c1 [NUCC-0198404]	+ (>40 +)
CN/N=C(\C)c1cccc(-c2c(OCc3ccc(Cl)cc3)ccc(-c3cc(C(F)(F)F)n(C)n3)c2O)c1 [NUCC-0198405]	+ (>40 +)

Compound	Potency code
CCc1ccc(Oc2c(-c3ccc(O)cc3O)n[nH]c2C(F)(F)F)cc1 [NUCC-0198406]	++++ (<10 ++++)
Cn1nc(C(F)(F)F)cc1-c1ccc(OCc2ccc(Cl)cc2)c(Br)c1O [NUCC-0198407]	+++ (10-30 +++)
Cn1nc(-c2ccc(OCc3ccc(Cl)cc3)c(Br)c2O)cc1C(F)(F)F [NUCC-0198408]	+ (>40 +)
Cn1nc(C(F)(F)F)cc1-c1ccc(OCc2ccc(Cl)cc2)c(-c2ccc(C(N)=O)cc2)c1O [NUCC-0198409]	+ (>40 +)
Cn1nc(C(F)(F)F)cc1-c1ccc(OCc2ccc(Cl)cc2)c(-c2ccccc2OC(F)(F)F)c1O [NUCC-0198410]	+ (>40 +)
CCc1ccc(Oc2c(-c3ccc(O)cc3O)nn(C)c2C(F)(F)F)cc1 [NUCC-0198411]	+++ (10-30 +++)
Cn1nc(C(F)(F)F)cc1-c1ccc(OCc2ccc(Cl)cc2)cc1O [NUCC-0198412]	+ (>40 +)
CCOC(=O)c1cc(-c2ccc(OCc3ccc(Cl)cc3)c(-c3ccc(C#N)cc3)c2O)n[nH]1 [NUCC-0200489]	+ (>40 +)
Oc1c(-c2cc(C(F)(F)F)[nH]n2)ccc(OCc2ccc(Cl)cc2)c1Cc1ccccc1Cl [NUCC-0200490]	+ (>40 +)
Oc1cc(Nc2ccc(Cl)cc2)ccc1-c1cc(C(F)(F)F)[nH]n1 [NUCC-0200491]	++++ (<10 ++++)
Cn1nc(-c2ccc(Nc3ccc(Cl)cc3)cc2O)cc1C(F)(F)F [NUCC-0200492]	+++ (10-30 +++)
Oc1cc(NCc2ccc(Cl)cc2)ccc1-c1cc(C(F)(F)F)[nH]n1 [NUCC-0200493]	+ (>40 +)
Cn1nc(-c2ccc(NCc3ccc(Cl)cc3)cc2O)cc1C(F)(F)F [NUCC-0200494]	+ (>40 +)
Oc1ccc(-c2cc(C(F)(F)F)[nH]n2)c(O)c1-c1cc(C(F)(F)F)cc(C(F)(F)F)c1 [NUCC-0200495]	++++ (<10 ++++)
COc1ccc(-c2c(-c3ccc(O)cc3O)n[nH]c2C(F)(F)F)cc1OC [NUCC-0200496]	+ (>40 +)
Nc1ccc(-c2cc(C(F)(F)F)[nH]n2)c(O)c1 [NUCC-0200497]	+ (>40 +)
Cn1nc(-c2ccc(N)cc2O)cc1C(F)(F)F [NUCC-0200498]	+ (>40 +)
Oc1cc(OCc2ccc(Cl)cc2)ccc1-c1cc(C(F)(F)F)n(Cc2ccccc2)n1 [NUCC-0200499]	+ (>40 +)
Oc1cc(OCc2ccc(Cl)cc2)ccc1-c1cc(C(F)(F)F)nc(-c2cccc(C(F)(F)F)c2)n1 [NUCC-0200500]	+ (>40 +)
Oc1cc(OCc2ccc(Cl)cc2)ccc1-c1cc(C(F)(F)F)nc(-c2cc(C(F)(F)F)cc(C(F)(F)F)c2)n1 [NUCC-0200501]	+ (>40 +)
Nc1nc(-c2ccc(OCc3ccc(Cl)cc3)cc2O)cc(C(F)(F)F)n1 [NUCC-0200502]	+ (>40 +)
Oc1cc(OCc2ccc(Cl)cc2)ccc1-c1cc(C(F)(F)F)nc(-c2ccc(F)cc2)n1 [NUCC-0200503]	+ (>40 +)
N#Cc1cccc(-c2c(OCc3ccc(Cl)cc3)ccc(-c3cc(C(N)=O)[nH]n3)c2O)c1 [NUCC-0200557]	+ (>40 +)
Cn1nc(-c2ccc(OCc3ccc(Cl)cc3)c(-c3cccc(C#N)c3)c2O)cc1C(N)=O [NUCC-0200558]	++++ (<10 ++++)
